Results on 14 compounds are retold here after patent US20220127297A1, “Novel Antibacterial 3"-Derivatives Of 4,6-Disubstituted 2,5-Dideoxystreptamine Aminoglycoside Antibiotics” (AGILeBiotics B.V., priority 2018, published 2022).

Converted amounts (≈) assume the structure as drawn.

The subject of assay [1] is E. coli (AAC(3)III). Nature of the assay: MIC 50, broth micro-dilution, E. coli expressing AAC(3)III. The note with it: Escherichia coli, ATCC25922, ATCC25922 harboring plasmid encoding AAC(3)III. The assay is classed as cell-based, Escherichia coli. From the text: Cloning resistant enzymes. An Escherichia coli codon optimized gene encoding AAC(3)-III (GenBank acc.nr. X55652.1; SEQ ID NO:1), including a promoter and terminator sequence, was synthesized by Integrated DNA Technologies, Belgium. The synthesized gene and pBluescript II KS(+) plasmid were digested using the restriction enzymes SacI and SalI, and purified from a 1% TBE-agarose gel using the illustra Gel Band purification kit. The purified linear plasmid and T4 DNA ligase were used to ligate aac(3)-III under control of the constitutive lipoprotein Ipp promoter and ribosomal RNA rrnC terminator, resulting in pBlue_Ipp_aacC3_rrnC.
(§1) Plasmid transformation. Approximately 500 ng of the pET-9b(+) (Cat. No. 69432-3, Merck), pAT21-1 (provided by Prof. Dr. Patrice Courvalin, M.D., Pasteur Institute, France; prepared according to Trieu-Cuot et. al, Mol. Gen. Genet. 198(2), 348 (1985)), pBluescript::AAC(6′)-Ie/APH(2″)-Ia (provided by Prof. Dr. Sergei Vakulenko, M.D., University of Notre Dame, Ind., USA; prepared according to S. B. Vakulenko et. al., J. Biol. Chem. 287 (52), 43262 (2012)), pBlue_lpp_aacC3_rrnC and pSET152 (Cat. No. PVT3395, Life Science Market; prepared according to Bierman et al., Gene 116 (1), 43 (1992)) plasmids, encoding APH(3′)-Ia (SEQ ID NO:2), APH(3′)-IIIa (SEQ ID NO:3), AAC(6′)Ie-APH(2″)-Ia (SEQ ID NO:4), AAC(3)-III (SEQ ID NO:1), and AAC(3)-IV (SEQ ID NO:5) respectively, were individually incubated in a vial of competent cells for 15 min on ice. The cells were subsequently heated to 42° C. for 90 s, and cooled on ice for 1 min. After addition of 900 μL LB, the cells were incubated for 1 h at 37° C. and 200 rpm. Cells were plated on LB-agar supplemented with 50 μg/mL KanaA and incubated for 18 h at 37° C. The next day, a single colony was inoculated in 5 mL LB supplemented with 50 μg/mL and grown for 18 h at 37° C. and 200 rpm. A 200 μL sample of each culture was diluted with 200 μL of 40% v/v glycerol in water, and stored at −80° C. The plasmid was purified from the remaining culture using the Plasmid Miniprep kit. Plasmid DNA was investigated by Eurofins Genomics (Germany) to confirm the identity of the aminoglycoside resistance genes.
(§2) 3.1 Against E. coli Strains
(§3) Tested reference compounds. Amikacin sulfate (Cat. No. 01693, Chem-Impex), Gentamicin sulfate (Cat. No. G4918, Sigma Aldrich).
(§4) Microbial strains. E. coli ATCC 25922, E. coli ATCC 25922/pET-9b(+), E. coli ATCC 25922/pAT21-1, E. coli ATCC 25922/pBluescript::AAC(6′)-Ie/APH(2″)-Ia, E. coli ATCC 25922/pBlue_lpp_aacC3_rrnC, E. coli ATCC 25922/pSET152.
(§5) Culture media and equipment. BBL™ Mueller Hinton Broth 2 (Lot. BCBW1143, Cat. No. 70192, Sigma); Kanamycin A (Cat. No. A1493, AppliChem); 96-well deep well plate, 1 mL (Cat. No. 0030506.200, Eppendorf); Plate lids (Cat. No. 0030131.525, Eppendorf); 96-well plate, F-bottom (Cat. No. 781602, Brand; Incubator, Infors Multitron Pro); Laminar flow (Heraeus KS12); UV/VIS meter (Eppendorf BioPhotometer Plus); Platereader (Tecan Sunrise).
(§6) Compound preparation. Compounds were prepared in MH2 media at a concentration of 5 mM and stored at 4° C. For testing, solutions of 128 μM were prepared in MH2. Out of these working solutions, 400 μL was transferred to wells in the first column of 96-well deep well plates. Each compound was transferred in triplicate. Plates were previously filled with 200 μL of MH2 media in all wells except for the wells in the first column. After compound and antibiotic addition, the compounds were serial two-fold diluted by transferring 200 μL from the first to the second column, then from the second to the third column and so on. Finally, 200 μL was removed from the last column.
Inoculum preparation. Microorganisms used were all revived from 20% glycerol (40% v/v glycerol in water was diluted with MH2) storage at −80° C. by inoculating them in 5 mL MH2. inoculums of E. coli containing a plasmid were selected for by adding 50 μg/mL KanaA.
In general terms: Dilution methods test growth across graded concentrations, often in twofold steps.

The subject of assay [2] is E. coli (APH(3′)IIIa). Nature of the assay: MIC 50, broth micro-dilution, E. coli expressing APH(3′)IIIa. The format is cell-based, Escherichia coli. The note with it: Escherichia coli, ATCC25922, ATCC25922 harboring plasmid encoding APH(3′)IIIa. As for the experimental part:
as §1, §2, §3, §4, §5, §6
Inoculum preparation. Microorganisms used were all revived from 20% glycerol (40% v/v glycerol in water was diluted with MH2) storage at −80° C. by inoculating them in 5 mL MH2. inoculums of E. coli containing a plasmid were selected for by adding 50 μg/mL KanaA. The Inoculums were grown to an optical density (measured by UV/Vis spectroscopy) of 0.6-0.8 at 600 nm. Out of these suspensions, actual inoculums were prepared by diluting them to an optical density (OD) of 0.1 in MH2 media. From these inoculums, 200 μL was transferred to each well, resulting in a final compound concentration range of 64 μM-31.3 nM. All plates were incubated at 900 rpm and 70% rH for 18 h at 37° C.
MIC determination. After 18 h of growth, 200 μL was transferred to a 96-well F-bottom plate. The optical density was determined by a plate reader at 600 nm, with 10 s shaking before reading. Triplicate measurements were averaged, and a growth curve was plotted in Microsoft Excel. […]

As for `N=C(NCCCN)NC1[C@@H](O)C(OC2[C@@H](F)[C@H](O[C@H]3OC(CN)[C@@H](O)CC3N)C(N)C[C@H]2NC(=O)[C@@H](O)CCN)O[C@H](CO)[C@H]1O` (stereo partly shown) [ABX5030, Tobra-AHB-F-Gua-3-amino-propyl], the MIC50 in assay [1] and in assay [2] was 0.25 µM (≈ 0.167 µg/mL) each time.

As to `CNCCNC(=N)NC1[C@@H](O)C(OC2[C@@H](F)[C@H](O[C@H]3OC(CN)[C@@H](O)CC3N)C(N)C[C@H]2NC(=O)[C@@H](O)CCN)O[C@H](CO)[C@H]1O` (stereo partly shown) [ABX5038, Tobra-AHB-F-Gua 2-(methylamino)ethyl], the MIC50 in assay [1] and in assay [2] was 0.25 µM (≈ 0.167 µg/mL) throughout.

For the compound `N=C(NC[C@@H]1CCNC1)NC1[C@@H](O)C(OC2[C@@H](F)[C@H](O[C@H]3OC(CN)[C@@H](O)CC3N)C(N)C[C@H]2NC(=O)[C@@H](O)CCN)O[C@H](CO)[C@H]1O` (stereo partly drawn) [ABX5039, Tobra-AHB-F-Gua (R) pyrrolidine-3-ylmethyl], the MIC50 in assay [1] and in assay [2] was 0.25 µM (≈ 0.174 µg/mL) throughout.

`N=C(NC[C@@H]1CNCCO1)NC1[C@@H](O)C(OC2[C@@H](F)[C@H](O[C@H]3OC(CN)[C@@H](O)CC3N)C(N)C[C@H]2NC(=O)[C@@H](O)CCN)O[C@H](CO)[C@H]1O` (stereo partly drawn) [ABX5040, Tobra-AHB-F-Gua (S) morpholin-2-yl methyl]: the MIC50 in assay [1] and in assay [2] was 0.25 µM (≈ 0.178 µg/mL) in each case.

`N=C(NCCCO)NC1[C@@H](O)C(OC2[C@@H](F)[C@H](O[C@H]3OC(CN)[C@@H](O)CC3N)C(N)C[C@H]2NC(=O)[C@@H](O)CCN)O[C@H](CO)[C@H]1O` (stereo partly shown) [ABX5041, Tobra-AHB-F-Gua 3-hydroxy-propyl]: the MIC50 in assay [1] and in assay [2] was 0.5 µM (≈ 0.335 µg/mL) each time.

On to `N=C(NC[C@H]1CCNC1)NC1[C@@H](O)C(OC2[C@@H](F)[C@H](O[C@H]3OC(CN)[C@@H](O)CC3N)C(N)C[C@H]2NC(=O)[C@@H](O)CCN)O[C@H](CO)[C@H]1O` (stereo partly drawn) [ABX5042, Tobra-AHB-F-Gua (S) pyrrolidine-3-ylmethyl], for which the MIC50 in assay [1] turned out to be 0.125 µM (≈ 0.087 µg/mL); in assay [2], 0.25 µM (≈ 0.174 µg/mL).

Turning to `N=C(NC[C@H]1CNCCO1)NC1[C@@H](O)C(OC2[C@@H](F)[C@H](O[C@H]3OC(CN)[C@@H](O)CC3N)C(N)C[C@H]2NC(=O)[C@@H](O)CCN)O[C@H](CO)[C@H]1O` (stereo partly drawn) [ABX5043, Tobra-AHB-F-Gua (R) morpholin-2-yl methyl], the MIC50 in assay [1] and in assay [2] was 0.25 µM (≈ 0.178 µg/mL) in each case.

For the compound `N=C(N)NC1[C@@H](O)C(OC2[C@@H](F)[C@H](O[C@H]3OC(CNCCO)[C@@H](O)CC3N)C(N)C[C@H]2NC(=O)[C@@H](O)CCN)O[C@H](CO)[C@H]1O` (stereo partly shown) [ABX5045, 6N-2-hydroxy-ethyl-Tobra-AHB-F-Gua], the MIC50 in assay [1] is 0.5 to 1 µM (≈ 0.328 to 0.657 µg/mL); in assay [2], 1 µM (≈ 0.657 µg/mL).

Regarding `N=C(NCC1CCCO1)NC1[C@@H](O)C(OC2[C@@H](F)[C@H](O[C@H]3OC(CN)[C@@H](O)CC3N)C(N)C[C@H]2NC(=O)[C@@H](O)CCN)O[C@H](CO)[C@H]1O` (stereo partly shown) [ABX5046, Tobra-AHB-F-Gua tetrahydrofuran-2-yl methyl], the MIC50 in assay [1] and in assay [2] was 0.5 µM (≈ 0.348 µg/mL) in each case.

Regarding `C[C@@H](N)CCNC(=N)NC1[C@@H](O)C(OC2[C@@H](F)[C@H](O[C@H]3OC(CN)[C@@H](O)CC3N)C(N)C[C@H]2NC(=O)[C@@H](O)CCN)O[C@H](CO)[C@H]1O` (stereo partly drawn) [ABX5047, Tobra-AHB-F-Gua (R) 3-amino-butyl], the MIC50 in assay [1] and in assay [2] was 0.25 µM (≈ 0.171 µg/mL) each time.

As to `N=C(NCc1ccncc1)NC1[C@@H](O)C(OC2[C@@H](F)[C@H](O[C@H]3OC(CN)[C@@H](O)CC3N)C(N)C[C@H]2NC(=O)[C@@H](O)CCN)O[C@H](CO)[C@H]1O` (stereo partly shown) [ABX5048, Tobra-AHB-F-Gua pyridin-4-yl methyl], the MIC50 is 0.5 to 1 µM (≈ 0.352 to 0.704 µg/mL) in assay [1] and 0.25 µM (≈ 0.176 µg/mL) in assay [2].

For `N=C(NCc1cnc[nH]1)NC1[C@@H](O)C(OC2[C@@H](F)[C@H](O[C@H]3OC(CN)[C@@H](O)CC3N)C(N)C[C@H]2NC(=O)[C@@H](O)CCN)O[C@H](CO)[C@H]1O` (stereo partly shown) [ABX5050, Tobra-AHB-F-Gua imidazol-5-yl methyl], the MIC50 in assay [1] is 1 µM (≈ 0.693 µg/mL); in assay [2], 1 to 2 µM (≈ 0.693 to 1.39 µg/mL).

`N=C(NCC1CCOC1)NC1[C@@H](O)C(OC2[C@@H](F)[C@H](O[C@H]3OC(CN)[C@@H](O)CC3N)C(N)C[C@H]2NC(=O)[C@@H](O)CCN)O[C@H](CO)[C@H]1O` (stereo partly shown) [ABX5051, Tobra-AHB-F-Gua tetrahydrofuran-3-yl methyl]: the MIC50 was 0.5 to 1 µM (≈ 0.348 to 0.697 µg/mL) in assay [1] and 0.5 µM (≈ 0.348 µg/mL) in assay [2].

In the case of `NCC[C@H](O)C(=O)N[C@@H]1C[C@H](N)[C@@H](O[C@H]2O[C@H](CN)[C@@H](O)[C@H](O)[C@H]2O)[C@H](O)[C@H]1O[C@H]1O[C@H](CO)[C@@H](O)[C@H](N)[C@H]1O` [Amikacin, amikacin, reference compound], the MIC50 in assay [1] was 2 µM (≈ 1.17 µg/mL); in assay [2] it was 16 to 32 µM (≈ 9.37 to 18.7 µg/mL).

Usually MIC50 stands for an inhibitory concentration at the 50% level, which refers to growth in some studies and to a panel of isolates in others. Low values mean greater potency, high ones weaker potency.
